{"source": "patent US5100907A", "about": "“Hydantoin esters” (Lonza, Inc., priority 1990, dated 1992)", "key": {"Emulsion stability tests": {"experiment": "Emulsion stability tests", "type": "physicochemical", "conditions": "for Classification of Emulsion: 2% ester, 7% myristyl propionate, 91% water", "experimental": "Emulsion stability tests were performed on the esters (I), and for comparison on the precursor esters (Ia), to determine the extent to which each stabilized a standardized solution of water and an oil, using a common procedure consisting of homogenizing a mixture containing the test ester (2%), myristyl propionate (7%), and water (91%). While two emulsifiers are normally used to prepare a cosmetic formulation, e.g. one with a high HLB and the other with a low HLB, the test method herein using only one emulsifier, i.e. the test ester, is fully indicative of the emulsifying attributes of these esters.\nThe tests were performed with emulsions (500 g), prepared by combining the test ester (10.0 g), myristyl propionate (35 g), and distilled water (455 g) in a container and homogenizing the contents for one minute, via a Kika-Werk Ultra-Turrax S D-45 homogenizer. The emulsions were poured into a one pound flint jar, capped, and periodically examined over a 55 day period."}, "[1]": {"experiment": "Dispersion stability tests", "type": "physicochemical", "experimental": "The dispersion stability tests were performed on the esters (I) to determine the extent each was able to disperse itself in an aqueous medium.\nThe dispersions were prepared by homogenizing a mixture of the test ester and water, after which repeated examination of the sample was effected for a period of 55 days. This test method is fully indicative of the dispersibility of these esters (I).\nThe dispersion tests were performed with the esters at 0.5% and 5.0% active levels in water, prepared by combining the test ester with distilled water, and homogenizing the mixture for one to three minutes, via a Kika-Werk Ultra-Turrax S D-45 homogenizer. The dispersions were poured into an eight ounce flint jar, capped, and periodically examined over a 55 day period."}, "[2]": {"experiment": "HLB determination (weighted average method)", "type": "physicochemical", "description": "Hydrophilic-Lipophilic Balance or HLB is a means of associating the hydrophilic and lipophilic characteristics between two surfactants. A \"weighted average\" method was used to determine the HLB of the esters (I), and by comparison of the precursor ester (Ia), in which two emulsifiers of known HLB values along with the test ester were incorporated in a mixture of mineral oil and water. Evaluation and HLB determination of each of a series of prepared emulsion samples were effected by visual inspection.\nThe HLB of the mixture \"m\" is calculated from the sum of the HLB contributions of each surfactant, \"a\", \"b\", \"c\", per Equation 2 which describes a system of oil, water, and three surfactants.\nGiven that [HLB]m, [HLB]a, and [HLB]b, are known, and the ideal amount of \"a\", \"b\", and \"c\" to prepare a perfect emulsion has been determined, then by rearrangement of Eq. 2, the HLB of \"c\" can be calculated by Equation 3.\nTo obtain the HLB of the test ester as surfactant \"c\", a series of formulations was prepared in which the known surfactant sorbitan monostearate (SMS) as \"a\" and the known surfactant POE 20 sorbitan monostearate (POE 20 SMS) as \"b\" were varied in amount (wt. %) relative to each other at a constant amount (1 wt. %) of \"c\", until an optimum emulsion was obtained. Different combinations of \"a\" and \"b\" were used to vary the HLB of \"c\", for emulsifying a 40:56 (wt. %) mixture of paraffin oil and distilled water (totaling 96 wt. %).\nTo prepare the emulsions, surfactants \"a\", \"b\", and \"c\", and the paraffin oil were combined in a 150 ml beaker and heated slowly with agitation to 70°-80° C. The value of \"X\" in each formulation was predetermined by rearranging Eq. 3 to solve for X, and then inserting into the equation various [HLB]c values for the test ester (i.e., 2, 3, 4, 5, 6 . . . ). The [HLB]c values chosen reflected a range that would likely contain the actual HLB of the test ester. Hot distilled water (70°-80° C.) was then slowly added with agitation. The total weight of all these reagents was 100 grams. The resulting emulsion was allowed to cool, with continued agitation, until the temperature dropped below 30° C.\nA series of emulsions for each test was prepared, one at a time, and then examined as a set. Each sample within the series was evaluated and graded according to the quality of the emulsion by visual examination of droplet size."}, "Escherichia coli": {"system": "Escherichia coli", "experiment": "Antimicrobial study against Escherichia coli (gram-negative bacteria)", "type": "cell-based", "conditions": "methylolated C8/10 10,800 ppm, methylolated lauric 11,400 ppm, DMDMH 3,000 ppm, others 14,700 ppm", "experimental": "(§1) The antimicrobial properties of typical esters (I) and (Ia) were tested by minimum inhibitory concentration (MIC) tests, along with certain known substances, against […] strains of organisms: a mold, Aspergillus niger; a gram-positive bacteria, Staphylococcus aureus; and two gram-negative bacteria, Escherichia coli and Pseudomonas aeruginosa. […] These tests were used to determine any effect on biocidal activity of the varying chain length of the ester.\n(§2) The known substances, on which identical tests were also performed, included the biocide, dimethyloldimethylhydantoin or DMDMH (iv), and a series of three surfactants, i.e., the three common emulsifiers, sodium lauryl sulfate (SLS); ethylene glycol distearate (EGDS), in the form of the commercial product PEGOSPERSE 50 DS (Lonza Inc.); and polyoxyethylene 20 sorbitan monoleate (POE 20 SMO), in the form of the commercial product GLYCOSPERSE 0 20 (Lonza Inc.).\n(§3) The tests entailed contaminating a preexisting micro-colony with a known quantity (ppm, concentration) of test material. Each colony was then examined periodically over a one week period. […] A test was deemed non-efficacious when there was no decrease in colony size. In an effort to avoid any possible solvent effect, the micro-study was conducted in a totally aqueous solvent system without use of any other solvent."}, "Pseudomonas aeruginosa": {"system": "Pseudomonas aeruginosa", "experiment": "Antimicrobial study against Pseudomonas aeruginosa (gram-negative bacteria)", "type": "cell-based", "conditions": "methylolated C8/10 10,800 ppm, methylolated lauric 11,400 ppm, DMDMH 3,000 ppm, others 14,700 ppm", "experimental": "as §1, §2, §3"}, "Aspergillus niger": {"system": "Aspergillus niger", "experiment": "Antimicrobial study against Aspergillus niger (mold)", "type": "cell-based", "conditions": "methylolated C8/10 10,800 ppm, methylolated lauric 11,400 ppm, DMDMH 3,000 ppm, others 14,700 ppm", "experimental": "as §1, §2, §3"}, "Staphylococcus aureus": {"system": "Staphylococcus aureus", "experiment": "Antimicrobial study against Staphylococcus aureus (gram-positive bacteria)", "type": "cell-based", "conditions": "methylolated C8/10 10,800 ppm, methylolated lauric 11,400 ppm, DMDMH 3,000 ppm, others 14,700 ppm", "experimental": "as §1, §2, §3"}}}
{"compound": "mixture of the 2-(3-hydroxymethyl-5,5-dimethyl-1,3-diazacyclopentane-2,4-dion-1-yl)-ethylesters of caprylic acid and capric acid [Methylolated C8/10 Ester]", "values": [{"measurement": "ability to stabilize emulsions", "setting": "Emulsion stability tests", "result": "generally unable to stabilize an emulsion for more than two hours"}]}
{"compound": "2-(3-hydroxymethyl-5,5-dimethyl-1,3-diazacyclopentane-2,4-dion-1-yl)-ethylester of coconut fatty acid [Coconut Methylolated Ester]", "values": [{"measurement": "stability of dispersions in water", "setting": "[1]", "result": "stable for weeks"}, {"measurement": "ability to stabilize emulsions", "setting": "Emulsion stability tests", "result": "the best emulsifiers tested"}, {"measurement": "duration of stabilized emulsions", "setting": "Emulsion stability tests", "result": "more than 22 days"}]}
{"compound": "2-(5,5-dimethyl-1,3-diazacyclopentane-2,4-dion-1-yl)-ethyl ester of isostearic acid [Isostearic Non-Methylolated Ester]", "values": [{"measurement": "Average HLB", "setting": "[2]", "result": 7.0}, {"measurement": "HLB Range", "setting": "[2]", "result": "6-7"}, {"measurement": "Classification of Emulsion", "setting": "Emulsion stability tests; 7 Days after preparation", "result": "2-Phase"}, {"measurement": "Classification of Emulsion", "setting": "Emulsion stability tests; 22 Days after preparation", "result": "2-Phase"}, {"measurement": "Classification of Emulsion", "setting": "Emulsion stability tests; 55 Days after preparation", "result": "2-Phase"}]}
{"compound": "CCCCCCCC/C=C\\CCCCCCCC(=O)OCCN1C(=O)NC(=O)C1(C)C", "note": "[Oleic Non-Methylolated Ester, 2-(5,5-dimethyl-1,3-diazacyclopentane-2,4-dion-1-yl)-ethyl ester of oleic acid]", "values": [{"measurement": "Average HLB", "setting": "[2]", "result": 8.5}, {"measurement": "HLB Range", "setting": "[2]", "result": "8-9"}, {"measurement": "Classification of Emulsion", "setting": "Emulsion stability tests; 7 Days after preparation", "result": "2-Phase"}, {"measurement": "Classification of Emulsion", "setting": "Emulsion stability tests; 22 Days after preparation", "result": "2-Phase"}, {"measurement": "Classification of Emulsion", "setting": "Emulsion stability tests; 55 Days after preparation", "result": "2-Phase"}]}
{"compound": "CCCCCCCCCCCC(=O)OCCN1C(=O)NC(=O)C1(C)C", "note": "[Non-Methylolated Lauric Ester, 2-(5,5-dimethyl-1,3-diazacyclopentane-2,4-dion-1-yl)-ethyl ester of lauric acid]", "values": [{"measurement": "Colony Count", "setting": "Escherichia coli; Day 0", "result": "TNC"}, {"measurement": "Colony Count", "setting": "Escherichia coli; Day 1", "result": "TNC"}, {"measurement": "Colony Count", "setting": "Escherichia coli; Day 2", "result": "TNC"}, {"measurement": "Colony Count", "setting": "Escherichia coli; Day 3", "result": "TNC"}, {"measurement": "Colony Count", "setting": "Escherichia coli; Day 7", "result": "TNC"}, {"measurement": "Colony Count", "setting": "Pseudomonas aeruginosa; Day 0", "result": "TNC"}, {"measurement": "Colony Count", "setting": "Pseudomonas aeruginosa; Day 1", "result": "TNC"}, {"measurement": "Colony Count", "setting": "Pseudomonas aeruginosa; Day 2", "result": "TNC"}, {"measurement": "Colony Count", "setting": "Pseudomonas aeruginosa; Day 3", "result": "250 × 1,000"}, {"measurement": "Colony Count", "setting": "Pseudomonas aeruginosa; Day 7", "result": "TNC"}, {"measurement": "Average HLB", "setting": "[2]", "result": 6.5}, {"measurement": "HLB Range", "setting": "[2]", "result": "5-7"}, {"measurement": "Colony Count", "setting": "Aspergillus niger; Day 0", "result": "300 × 1,000"}, {"measurement": "Colony Count", "setting": "Aspergillus niger; Day 1", "result": "200 × 1,000"}, {"measurement": "Colony Count", "setting": "Aspergillus niger; Day 2", "result": "200 × 1,000"}, {"measurement": "Colony Count", "setting": "Aspergillus niger; Day 3", "result": "220 × 1,000"}, {"measurement": "Colony Count", "setting": "Aspergillus niger; Day 7", "result": "150 × 1,000"}, {"measurement": "Colony Count", "setting": "Staphylococcus aureus; Day 0", "result": "TNC"}, {"measurement": "Colony Count", "setting": "Staphylococcus aureus; Day 1", "result": "500 × 1,000"}, {"measurement": "Colony Count", "setting": "Staphylococcus aureus; Day 2", "result": "3,000 × 1,000"}, {"measurement": "Colony Count", "setting": "Staphylococcus aureus; Day 3", "result": "TNC"}, {"measurement": "Colony Count", "setting": "Staphylococcus aureus; Day 7", "result": "30 × 1,000"}]}
{"compound": "CCCCCCCCCCCCCCCCCC(=O)OCCN1C(=O)NC(=O)C1(C)C", "note": "[Stearic Non-Methylolated Ester, 2-(5,5-dimethyl-1,3-diazacyclopentane-2,4-dion-1-yl)-ethyl ester of stearic acid]", "values": [{"measurement": "Average HLB", "setting": "[2]", "result": 1.5}, {"measurement": "HLB Range", "setting": "[2]", "result": "1-3"}, {"measurement": "Classification of Emulsion", "setting": "Emulsion stability tests; 2 Hours after preparation", "result": "2-Phase"}, {"measurement": "Classification of Emulsion", "setting": "Emulsion stability tests; 7 Days after preparation", "result": "2-Phase"}, {"measurement": "Classification of Emulsion", "setting": "Emulsion stability tests; 22 Days after preparation", "result": "2-Phase"}, {"measurement": "Classification of Emulsion", "setting": "Emulsion stability tests; 55 Days after preparation", "result": "2-Phase"}]}
{"compound": "CC(=O)OCCN1C(=O)NC(=O)C1(C)C", "note": "[Acetic Non-Methylolated Ester, 2-(5,5-dimethyl-1,3-diazacyclopentane-2,4-dion-1-yl)-ethyl ester of acetic acid]", "values": [{"measurement": "Average HLB", "setting": "[2]", "result": 7.0}, {"measurement": "HLB Range", "setting": "[2]", "result": "6-8"}, {"measurement": "Classification of Emulsion", "setting": "Emulsion stability tests; 2 Hours after preparation", "result": "2-Phase"}, {"measurement": "Classification of Emulsion", "setting": "Emulsion stability tests; 7 Days after preparation", "result": "2-Phase"}, {"measurement": "Classification of Emulsion", "setting": "Emulsion stability tests; 22 Days after preparation", "result": "2-Phase"}, {"measurement": "Classification of Emulsion", "setting": "Emulsion stability tests; 55 Days after preparation", "result": "2-Phase"}]}
